Experiments:
Tubulin alpha-1A chain [1] = target: T1, Tubulin alpha-1A chain (Sus scrofa, UniProt P02550); assay: Inhibition of colchicine binding(ICB). [3H]colchicine concentration was 5 uM
Tubulin alpha-1A chain [2] = target: T1, Tubulin alpha-1A chain; assay: Inhibition of colchicine binding(ICB). Tubulin concentration was 1 uM
Tubulin alpha-1A chain [3] = target: T1, Tubulin alpha-1A chain; assay: Percent inhibition of colchicine binding(ICB) at 5 uM [3H]colchicine concentration

T1 sequence (P02550 whole entry, looked up): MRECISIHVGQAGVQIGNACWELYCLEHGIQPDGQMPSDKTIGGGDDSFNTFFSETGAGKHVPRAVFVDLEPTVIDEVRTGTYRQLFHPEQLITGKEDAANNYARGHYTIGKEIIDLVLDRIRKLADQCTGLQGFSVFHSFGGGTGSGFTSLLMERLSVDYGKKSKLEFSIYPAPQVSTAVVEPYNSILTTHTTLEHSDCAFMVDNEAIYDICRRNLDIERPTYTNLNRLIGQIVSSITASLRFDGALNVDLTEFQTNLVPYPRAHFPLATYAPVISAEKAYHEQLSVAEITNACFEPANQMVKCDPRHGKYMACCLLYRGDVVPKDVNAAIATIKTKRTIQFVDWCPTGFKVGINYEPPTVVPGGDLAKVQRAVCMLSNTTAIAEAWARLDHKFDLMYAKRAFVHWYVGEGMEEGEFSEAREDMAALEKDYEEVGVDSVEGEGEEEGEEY

Row | Inhibition (Tubulin alpha-1A chain [1]) [%] | Inhibition (Tubulin alpha-1A chain [2]) [%] | Inhibition (Tubulin alpha-1A chain [3]) [%] | SMILES
1 | 93 | 76 | – | Oc1cc(-c2ccccc2F)nc2ccc(N3CCCC3)cc12 [2-(2-fluorophenyl)-6-(pyrrolidin-1-yl)quinolin-4(1H)-one]
2 | – | – | 39 | Oc1cc(-c2ccccc2F)nc2cc3c(cc12)OCO3 [2-(2-fluorophenyl)-6,7-methylenedioxyquinolin-4-one]
